Results: paper PMC9368981, “The γ-Core Motif Peptides of AMPs from Grasses Display Inhibitory Activity against Human and Plant Pathogens” (International Journal of Molecular Sciences, 2022)
Where a SMILES comes first, the peptide text is derived from it. Where no end group is shown, it is not given here.

Legend:
[1] = system: Pseudomonas savastanoi pv. savastanoi VKM B-1546; type: cell-based; conditions: 300 µM peptide; 30 °C, 24 h, absorbance 594 nm; vs control without peptide; triplicate, mean
Description: (§1) The antimicrobial activity of synthetic peptides was tested against a panel of human and plant pathogens. Among them were the yeasts Candida albicans VKM Y-2994 and Cryptococcus neoformans VKM Y-2755, the plant pathogenic bacteria Clavibacter michiganensis subsp. michiganensis VKM Ac-1403, Pseudomonas savastanoi pv. savastanoi VKM B-1546 and Pectobacterium carotovorum subsp. carotovorum VKM B-1247, and four Fusarium species (F. oxysporum VKM F-137, F. culmorum VKM F-2303, F. solani VKM F-142 and F. verticillioides VKM F-670), which cause diseases in plants and humans. The antimicrobial activity was first measured at the peptide concentration of 300 µM (Figure 3).
(§2) The antimicrobial activity of synthetic peptides was tested against the yeasts Candida albicans VKM Y-2994 and Cryptococcus neoformans VKM Y-2755, the bacteria Pseudomonas savastanoi pv. savastanoi VKM B-1546, Pectobacterium carotovorum subsp. carotovorum VKM B-1247 and Clavibacter michiganensis subsp. michiganensis VKM Ac-1403, and four Fusarium species: F. culmorum VKM F-2303, F. oxysporum VKM F-137, F. solani VKM F-142 and F. verticillioides VKM F-670. All cultures were obtained from the All-Russian Collection of Microorganisms (VKM). The details of the production and storage of cultures of microorganisms used in this study are described at the VKM Home page. Antimicrobial assays were accomplished according to the procedure described earlier. In short, yeasts were grown on the YPD-P medium and the bacteria P. carotovorum and Cl. michiganensis were cultured on a modified YPD-P medium. The Fusarium fungi were grown on potato dextrose agar at 25 °C for 7–8 days, and spores were washed off from the surface of the mycelia with sterile, distilled water. The antimicrobial activity of the peptides was measured in immunoassay microtiter plates according to the protocol of Broekaert et al.. With yeasts and bacteria, each well contained 10 µL of the tested peptide solution (final concentrations of 10–300 µM) in water, 80 µL of the medium and 10 µL of the microbial suspension. The plates were incubated at 30 °C for 24 h, and the absorbance of the suspension was measured on an Efos 9305 spectrophotometer (Sapphire, Moscow, Russia) at 594 nm. For Fusarium species, the wells of a microtiter plate were filled with 90 µL of the fungal spore suspension in half-strength potato dextrose broth at a concentration of 2000–3000 spores in 100 µL and 10 µL of aqueous solutions of peptides at final concentrations of 10–300 µM. After 38 h of incubation, the absorbance was recorded at 595 nm on a FilterMax F5 Multi-Mode Microplate Reader (Molecular Devices, San Jose, CA, USA). Antimicrobial activity is expressed in IC50 values, which show the concentration necessary for 50% inhibition of the pathogen growth; this was determined from a graph showing the activity dependence on peptide concentration.
(§3) For each pathogen, experiments on the peptide antimicrobial activity evaluation were carried out in triplicate per treatment. Mean values, standard deviations (SD), and the significance of differences (p ≤ 0.05) of the means between treatments and controls (t-test for independent variables) were determined using STATISTICA v. 6.1 software (StatSoft Inc., Tulsa, OK, USA).

[2] = system: C. albicans cells; experiment: Propidium iodide staining, fluorescence microscopy; type: cell-based, Candida albicans; conditions: peptide 300 µM, 30 °C, 1 h, 0.03 mM PI 15 min
Description: (§4) Their ability to disturb the integrity of pathogen membranes was assayed by staining with propidium iodide of C. albicans and Cr. neoformans cells preliminarily incubated with the peptides. The results were visualized by fluorescent microscopy and quantified by flow cytometry (Figure 5, Figure 6 and Figure 7).
(§5) Staining of yeast cells with propidium iodide in the presence of the γ-core peptides was carried out according to the protocol described earlier. C. albicans or Cr. neoformans cells (24 h culture in YPD-P at a cell concentration of 2 × 10^8/mL) were incubated with the peptide at a concentration of 300 µM at 30 °C for 1 h. After incubation, 1 mL of the cells was stained with 0.03 mM propidium iodide (Sigma, St. Louis, MO, USA). The staining proceeded for 15 min at 30 °C. The fluorescence was recorded on an AXIO Imager A1 fluorescence microscope (ZEISS, Göttingen, Germany) using a Zeiss filter set 56 HE.

[3] = system: Cr. neoformans cells; experiment: Propidium iodide staining, fluorescence microscopy; type: cell-based, Cryptococcus neoformans; conditions: peptide 300 µM, 30 °C, 1 h, 0.03 mM PI 15 min
Description: as §4, §5

[4] = system: Candida albicans VKM Y-2994; type: cell-based; conditions: for Inhibition of C. albicans at the highest tested concentration: inhibition curves (Figure 4), highest tested concentration (300 µM)
Description: as §1, §2, §3

[5] = system: F. verticillioides VKM F-670; type: cell-based, Fusarium verticillioides
Description: as §1, §2, §3

[6] = system: Pectobacterium carotovorum subsp. carotovorum VKM B-1247; conditions: 30 °C, 24 h, absorbance 594 nm
Description: All cultures were obtained from the All-Russian Collection of Microorganisms (VKM).
Mean values, standard deviations (SD), and the significance of differences (p ≤ 0.05) of the means between treatments and controls (t-test for independent variables) were determined using […] v. 6.1 software (StatSoft Inc., Tulsa, OK, USA).

[7] = system: Cryptococcus neoformans VKM Y-2755; type: cell-based
Description: as §1, §2, §3

[8] = system: Cr. neoformans cells; experiment: Propidium iodide penetration, flow cytometry; type: cell-based, Cryptococcus neoformans; conditions: 28 °C, 2 h; for Penetration of propidium iodide (PI) into Cr. neoformans cells: peptide 300 µM in water, PI 2 µg/mL, FL2 (488/585 nm); for Number of Cr. neoformans cells in flow cytometry: peptide 300 µM
Description: as §4
For flow cytometry experiments with Cr. neoformans, the yeasts were grown on the YPD medium at 28 °C for 48 h. After that, the cells were centrifuged at 12,000× g for 3 min, washed with MiliQ water and incubated with the peptides dissolved in water at a concentration of 300 µM at 28 °C for 2 h. The cells were stained with propidium iodide by direct addition of the dye to the incubation medium (final concentration of 2 µg/mL) and measured on a NovoCyte Flow cytometer (Agilent, Santa Clara, CA, USA) using the channel FL2 (488 nm excitation and 585 nm emission). The sample without peptides was used as a control.

[9] = inhibition curves (Figure 4), highest tested concentration (300 µM)

## CC[C@H](C)[C@H](NC(=O)[C@H](CCCCN)NC(=O)[C@H](CS)NC(=O)[C@H](Cc1ccc(O)cc1)NC(=O)CN)C(=O)N[C@@H](CO)C(=O)N[C@@H](CCCNC(=N)N)C(=O)N[C@@H](CS)C(=O)N[C@H](C(=O)N[C@@H](CS)C(=O)N[C@@H](CCC(N)=O)C(=O)N[C@@H](CCCNC(=N)N)C(=O)N[C@@H](CCC(=O)O)C(=O)N[C@@H](CS)C(=O)O)[C@@H](C)O [DEFL1-11_55-68] (H-GYCKISRCTCQREC-OH; N-terminus and C-terminus assumed)
[1]
  Pathogen inhibition, % (Ps. savastanoi): failed to suppress

## C[C@@H](O)[C@H](NC(=O)[C@H](CS)NC(=O)[C@H](Cc1ccccc1)NC(=O)[C@H](CS)NC(=O)[C@H](CCCNC(=N)N)NC(=O)[C@H](CCCNC(=N)N)NC(=O)[C@H](CCCNC(=N)N)NC(=O)[C@H](Cc1ccccc1)NC(=O)CNC(=O)[C@H](CCCNC(=N)N)NC(=O)[C@H](CS)NC(=O)[C@H](CCCCN)NC(=O)CN)C(=O)N[C@H](C(=O)N[C@@H](Cc1c[nH]cn1)C(=O)N[C@@H](CS)C(=O)N[C@@H](Cc1c[nH]cn1)C(=O)N[C@@H](Cc1c[nH]cn1)C(=O)O)[C@@H](C)O [DEFL1-16_65-82] (H-GKCRGFRRRCFCTTHCHH-OH; N-terminus and C-terminus assumed)
[2]
  Membrane permeabilization of C. albicans cells (PI staining): induced membrane permeabilization
[3]
  Membrane permeabilization of Cr. neoformans cells (PI staining): induced membrane permeabilization

## C[C@@H](O)[C@H](NC(=O)[C@H](CS)NC(=O)[C@H](CCCNC(=N)N)NC(=O)[C@H](CCCNC(=N)N)NC(=O)[C@H](Cc1ccccc1)NC(=O)[C@H](CCCCN)NC(=O)[C@H](CS)NC(=O)[C@H](Cc1ccc(O)cc1)NC(=O)CN)C(=O)N[C@@H](CS)C(=O)N[C@@H](CCC(N)=O)C(=O)N[C@@H](CCCNC(=N)N)C(=O)N[C@@H](CCC(=O)O)C(=O)N[C@@H](CS)C(=O)O [DEFL1-32_55-68] (H-GYCKFRRCTCQREC-OH; N-terminus and C-terminus assumed)
[2]
  Membrane permeabilization of C. albicans cells (PI staining): induced membrane permeabilization
[3]
  Membrane permeabilization of Cr. neoformans cells (PI staining): induced membrane permeabilization
[4]
  Inhibition of C. albicans at the highest tested concentration: 92%

## CC(C)C[C@H](NC(=O)[C@H](CCCNC(=N)N)NC(=O)[C@H](Cc1c[nH]cn1)NC(=O)[C@H](CO)NC(=O)[C@H](CC(N)=O)NC(=O)[C@H](CS)NC(=O)[C@H](CCC(=O)O)NC(=O)CN)C(=O)N[C@@H](CCC(=O)O)C(=O)N[C@@H](CCCNC(=N)N)C(=O)N[C@@H](CCCCN)C(=O)N[C@@H](CS)C(=O)N[C@@H](Cc1ccccc1)C(=O)N[C@@H](CS)C(=O)N[C@@H](CCCCN)C(=O)N[C@@H](CCCNC(=N)N)C(=O)N[C@H](C(=O)N[C@@H](CS)C(=O)O)[C@@H](C)O [DEFL1-40_65-82] (H-GECNSHRLERKCFCKRTC-OH)
[4]; 300 µM peptide, YPD-P medium, 30 °C, 24 h, absorbance 594 nm, vs control without peptide, triplicate, mean
  Pathogen inhibition, % (C. albicans): failed to suppress

## C[C@H](NC(=O)[C@@H](N)CS)C(=O)NCC(=O)N[C@@H](CCCNC(=N)N)C(=O)NCC(=O)N[C@@H](CCC(N)=O)C(=O)N1CCC[C@H]1C(=O)N[C@@H](Cc1ccc(O)cc1)C(=O)N[C@H](C(=O)NCC(=O)N[C@@H](CO)C(=O)NCC(=O)N[C@@H](CS)C(=O)O)[C@@H](C)O [DEFL4-8_82-94] (H-CAGRGQPYTGSGC-OH; N-terminus and C-terminus assumed)
[5]; [9]
  Maximum inhibition of F. verticillioides at the highest tested concentration: 26%
[5]; peptide 10–300 µM, 38 h, absorbance 595 nm, from activity vs concentration graph, mean ± SD
  IC50: > 100 µM
[6]; 300 µM peptide, modified YPD-P medium, vs control without peptide, triplicate, mean
  Pathogen inhibition, % (P. carotovorum): 42%
[6]; read-out: IC50, μM P. carotovorum, peptide 10–300 µM, from activity vs concentration graph, mean ± SD
  IC50: > 100 µM

## CC(C)[C@H](NC(=O)[C@H](CS)NC(=O)[C@H](CCCNC(=N)N)NC(=O)CNC(=O)CNC(=O)[C@H](CS)NC(=O)[C@H](CS)NC(=O)[C@@H]1CCCN1C(=O)[C@H](Cc1ccccc1)NC(=O)[C@@H](NC(=O)[C@@H](NC(=O)[C@H](CCCNC(=N)N)NC(=O)[C@H](CS)NC(=O)[C@@H](N)CCCCN)[C@@H](C)O)[C@@H](C)O)C(=O)O [Tk-AMP-K2_10-23] (H-KCRTTFPCCGGRCV-OH; N-terminus and C-terminus assumed)
[2]
  Membrane permeabilization of C. albicans cells (PI staining): induced membrane permeabilization
[3]
  Membrane permeabilization of Cr. neoformans cells (PI staining): induced membrane permeabilization
[7]; [9]
  Inhibition of Cr. neoformans at the highest tested concentration: complete inhibition
[8]
  Penetration of propidium iodide (PI) into Cr. neoformans cells: 66.86%
  Number of Cr. neoformans cells in flow cytometry: reduction in the number of Cr. neoformans cells

## CSCC[C@H](NC(=O)[C@H](CS)NC(=O)[C@H](C)NC(=O)CNC(=O)[C@H](CCCNC(=N)N)NC(=O)[C@H](CCCCN)NC(=O)[C@H](C)NC(=O)[C@H](CCCNC(=N)N)NC(=O)[C@H](CO)NC(=O)[C@H](CCCNC(=N)N)NC(=O)[C@H](C)NC(=O)[C@H](CS)NC(=O)[C@H](CCCNC(=N)N)NC(=O)[C@@H](NC(=O)[C@H](C)NC(=O)[C@H](CS)NC(=O)[C@H](CCCCN)NC(=O)CN)C(C)C)C(=O)N[C@@H](CCCCN)C(=O)O [TkSN1_39-57] (H-GKCAVRCARSRAKRGACMK-OH; N-terminus and C-terminus assumed)
[2]
  Membrane permeabilization of C. albicans cells (PI staining): induced membrane permeabilization
[3]
  Membrane permeabilization of Cr. neoformans cells (PI staining): induced membrane permeabilization
[4]
  Inhibition of C. albicans at the highest tested concentration: complete inhibition

## AGHGKRYTGRG [HvDEFL4-1_67-77]
[2]
  Membrane permeabilization of C. albicans cells (PI staining): induced membrane permeabilization
[3]
  Membrane permeabilization of Cr. neoformans cells (PI staining): induced membrane permeabilization
[8]
  Penetration of propidium iodide (PI) into Cr. neoformans cells: 37.84%
  Number of Cr. neoformans cells in flow cytometry: reduction in the number of Cr. neoformans cells

## PARGRPYTGRA [DEFL4-37_91-101]
[7]; 300 µM (Figure 3), times less active
  Activity against Cr. neoformans relative to DEFL4-37_90-102: 10 times
